Results on 9 compounds are retold here after patent US8975417B2, “Pyrazolopyrrolidine derivatives and their use in the treatment of disease” (Novartis AG, priority 2013, dated 2015).

One may read the IC50 as the concentration that inhibits the measured activity by half.

One assay addresses His-Brd3(20-477) (Homo sapiens (Human), UniProt Q15059). Description: TR-FRET in-vitro binding assay for BRD3. As to conditions: biochemical. The gist of the method: (§1)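 His-tagged BRD2(60-472), BRD3(20-477) or BRD4(44-477), 45 nM in dispensing solution, with 60 nM tetra-acetylated histone H4 peptide (AcK5/8/12/16) in dispensing solution; HEPES pH 7.5, 50 mM NaCl, 0.1% BSA, 30 °C, 35 min. Eu-anti-His6 antibody plus streptavidin-APC added for TR-FRET read-out; 8-point compound dilutions.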

For assay [1], the target named is nuclear BRD4-NUT foci in HCC2494 NUT midline carcinoma cells (Homo sapiens (Human), UniProt O60885+Q86Y26). Description: Nut-foci formation assay. It counts as cell-based. As to conditions: 24 hours, read-out: HCS Brd4-NUT IC50. As for the experimental part:
HCC2494 NUT midline carcinoma cells (expressing BRD4-NUT-fusion) were obtained from the University of Texas Southwestern and cultured in RPMI-1640 medium containing 10% Foetal Calf Serum at 37° C. in a humidified 5% CO2 incubator.
Compound-mediated inhibition of BRD4 activity was monitored by quantification of the number and intensity of nuclear BRD4-NUT foci using automated immunofluorescence microscopy. Briefly, 5000 cells in 20 μL fresh medium were seeded into Poly-D-Lysine-precoated 384-well plates and incubated overnight at 37° C. and 5% CO2, followed by addition of 5 μl medium containing compound dilutions at 5-fold their final intended concentration. Dose-response effects were assessed by 3-fold serial dilutions of the test compound, starting at 10 μM. Following incubation of the cells for 24 hours at 37° C. and 5% CO2, the cells were fixed by incubation with 3.7% formaldehyde for 10 min, followed by immunofluorescence staining using rabbit anti-NUT (Cell Signaling Technologies, Cat#3625) as primary, and AlexaFluor488-labeled goat anti-rabbit (Invitrogen, Cat#A11008) as secondary antibody (latter complemented with 1 μg/mL Hoechst33342 as DNA dye). Assay plates were imaged using the appropriate filter sets on the Cellomics VTi automated fluorescence microscopy platform (ThermoFisher Scientific) and the population average of the number of NUT-foci per nucleus is quantified using the Cellomics Spot Detection BioApplication image analysis algorithm (ThermoFisher Scientific). The effect of a particular test compound concentration on NUT-foci number and intensity is expressed as percentage of the value obtained for cells treated with vehicle only (DMSO, 0.1% final concentration), which was set as 100. Compound concentrations leading to half-maximal (IC50) inhibition of the aforementioned readout parameters were determined using standard four parameter curve fitting.

A further assay concerns the target His-Brd2(60-472) (Homo sapiens (Human), UniProt P25440). Nature of the assay: TR-FRET in-vitro binding assay for BRD2. As to conditions: biochemical. The gist of the method:
as §1
On the technique in general: TR-FRET usually uses a lanthanide donor and a delayed reading to cut background.

Molecules are shown by their SMILES. Where only a bound is given, the exact number is not on record here.

His-Brd3(20-477), sequence (Q15059 20-477): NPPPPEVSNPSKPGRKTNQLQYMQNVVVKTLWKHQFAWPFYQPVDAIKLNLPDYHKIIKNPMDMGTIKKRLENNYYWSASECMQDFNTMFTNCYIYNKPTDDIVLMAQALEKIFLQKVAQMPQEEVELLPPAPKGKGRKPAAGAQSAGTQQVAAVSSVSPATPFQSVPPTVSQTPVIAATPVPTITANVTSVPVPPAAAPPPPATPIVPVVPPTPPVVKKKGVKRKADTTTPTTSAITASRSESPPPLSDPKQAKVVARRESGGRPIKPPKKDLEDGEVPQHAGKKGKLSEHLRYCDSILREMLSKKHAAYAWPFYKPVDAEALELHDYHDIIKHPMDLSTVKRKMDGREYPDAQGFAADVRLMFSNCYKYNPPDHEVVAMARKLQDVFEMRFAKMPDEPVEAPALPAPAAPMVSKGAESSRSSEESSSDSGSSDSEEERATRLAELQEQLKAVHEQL
His-Brd2(60-472), sequence (P25440 60-472): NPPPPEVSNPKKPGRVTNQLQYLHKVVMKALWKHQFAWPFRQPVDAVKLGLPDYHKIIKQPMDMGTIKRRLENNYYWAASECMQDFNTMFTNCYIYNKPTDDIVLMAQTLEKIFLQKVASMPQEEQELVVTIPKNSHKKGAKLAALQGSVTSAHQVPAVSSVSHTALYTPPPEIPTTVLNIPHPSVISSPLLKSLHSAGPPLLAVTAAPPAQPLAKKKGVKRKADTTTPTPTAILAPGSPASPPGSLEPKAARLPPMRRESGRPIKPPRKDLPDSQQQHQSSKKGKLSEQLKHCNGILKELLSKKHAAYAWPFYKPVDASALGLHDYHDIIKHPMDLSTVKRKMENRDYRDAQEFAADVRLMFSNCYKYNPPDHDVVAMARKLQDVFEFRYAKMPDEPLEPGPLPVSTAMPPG

Regarding `Cc1nn(C(=O)N(C)C)c2c1[C@@H](c1ccc(Cl)cc1)N(c1cc(C)c3nnc(C)n3c1)C2=O` [Example 149, (R)-4-(4-chlorophenyl)-5-(3,8-dimethyl-[1,2,4]triazolo[4,3-a]pyridin-6-yl)-N,N,3-trimethyl-6-oxo-5,6-dihydropyrrolo[3,4-c]pyrazole-1(4H)-carboxamide], the IC50 stood at 39 nM at His-Brd3(20-477), 35.3 nM in assay [1] and 36 nM on His-Brd2(60-472).
The matching figures for `COc1ncc(-n2nc(C)c3c2C(=O)N(c2cc(C)c(=O)n(C)c2)C3c2ccc(Cl)cc2)c(OC)n1` (racemic) [Example 52, 4-(4-chlorophenyl)-1-(2,4-dimethoxypyrimidin-5-yl)-5-(1,5-dimethyl-6-oxo-1,6-dihydropyridin-3-yl)-3-methyl-4,5-dihydropyrrolo[3,4-c]pyrazol-6(1H)-one]: 69 nM, 117 nM and 63 nM.
On to `Cc1nn(C2CC2)c2c1C(c1cccc(C(F)(F)F)c1)N(c1cc(C)c(=O)n(C)c1)C2=O` (centres unmarked) [Example 96, 1-cyclopropyl-5-(1,5-dimethyl-6-oxo-1,6-dihydropyridin-3-yl)-3-methyl-4-(3-(trifluoromethyl)phenyl)-4,5-dihydropyrrolo[3,4-c]pyrazol-6(1H)-one], for which the figures for the IC50 (at His-Brd3(20-477); in assay [1]; on His-Brd2(60-472)) were 800 nM, 2010 nM and 660 nM, respectively.
In the same order, the values of `CCc1nn(CCO)c2c1C(c1ccc(Cl)cc1)N(c1cc(C)c(=O)n(C)c1)C2=O` (centres unmarked) [Example 78, 4-(4-chlorophenyl)-5-(1,5-dimethyl-6-oxo-1,6-dihydropyridin-3-yl)-3-ethyl-1-(2-hydroxyethyl)-4,5-dihydropyrrolo[3,4-c]pyrazol-6(1H)-one] are 57 nM, 39.5 nM and 79 nM.
The matching figures for `Cc1nn(C(C)C)c2c1[C@H](c1ccc(Cl)cc1)N(c1cc(C)c(=O)n(C)c1)C2=O` [Example 103, (S)-4-(4-chlorophenyl)-5-(1,5-dimethyl-6-oxo-1,6-dihydropyridin-3-yl)-1-isopropyl-3-methyl-4,5-dihydropyrrolo[3,4-c]pyrazol-6(1H)-one]: 6100 nM, greater than 10000 nM and 5300 nM.
For `COCc1nn(C2CC2)c2c1C(c1ccc(Cl)cc1)N(c1cc(C)c3nnc(C)n3c1)C2=O` (centres unmarked) [Example 130, 4-(4-chlorophenyl)-1-cyclopropyl-5-(3,8-dimethyl-[1,2,4]triazolo[4,3-a]pyridin-6-yl)-3-(methoxymethyl)-4,5-dihydropyrrolo[3,4-c]pyrazol-6(1H)-one], in assay [1], the IC50 is 13.9 nM.
On the same count and under the same terms, then `Cc1nn(C2CC2)c2c1[C@@H](c1ccc(Cl)cc1)N(c1cc(C)c3nnc(C)n3n1)C2=O` [Example 122, (R)-4-(4-chlorophenyl)-1-cyclopropyl-5-(3,8-dimethyl-[1,2,4]triazolo[4,3-b]-pyridazin-6-yl)-3-methyl-4,5-dihydropyrrolo[3,4-c]pyrazol-6(1H)-one], with 7.3 nM.
Same read-out and setting: then `COc1c2c(nn1C)C(=O)N(c1cc(C)c(=O)n(C)c1)C2c1ccc(Cl)cc1` (centres unmarked) [Example 77, 4-(4-chlorophenyl)-5-(1,5-dimethyl-6-oxo-1,6-dihydropyridin-3-yl)-3-methoxy-2-methyl-4,5-dihydropyrrolo[3,4-c]pyrazol-6(2H)-one], with 99.5 nM.
Consider `CC(=O)Nc1cc(N2C(=O)c3c(c(C)nn3C3CC3)C2c2ccc(Cl)cc2)nn2c(C)nnc12` (centres unmarked) [Example 126, N-(6-(4-(4-chlorophenyl)-1-cyclopropyl-3-methyl-6-oxopyrrolo[3,4-c]pyrazol-5-(1H,4H,6H)-yl)-3-methyl-[1,2,4]triazolo[4,3-b]pyridazin-8-yl)acetamide], for which the IC50 at His-Brd3(20-477) is greater than 37000 nM; in assay [1], 587 nM.
